Laboratory results: patent US20090131356A1, “miR-15, miR-26, miR-31, miR-145, miR-147, miR-188, miR-215, miR-216, miR-331, mmu-miR-292-3P REGULATED GENES AND PATHWAYS AS TARGETS FOR THERAPEUTIC INTERVENTION” (ASURAGEN, INC., priority 2006, published 2009)

Key:
Format in all cases: cell-based, human
A549 cells = test: Alamar Blue proliferation assay, A549
From the text: (§1) The inventors assessed the therapeutic effect of hsa-miR-147 for lung cancer by using 12 individual lung cancer cell lines. To measure cellular proliferation of lung cancer cells, the following parental non-small cell lung cancer (NSCLC) cells were used: cells derived from lung adenocarcinoma (A549, H1299, H522, H838, Calu-3, HCC827, HCC2935), cells derived from lung squamous cell carcinoma (H520, H226), cells derived from lung adenosquamous cell carcinoma (H596), cells derived from lung bronchioalveolar carcinoma (H1650), and cells derived from lung large cell carcinoma (H460). In addition to these parental cell lines, highly metastatic NSCLC cells were used that stably express the firefly luciferase gene: A549-luc, H460-luc, HCC827-luc, H1650-luc, H441-luc. Unlike the parental cell lines, these metastatic cells readily migrate to distant sites of the test animal and form metastases upon subcutaneous, orthotopic, or intravenous injection. Synthetic hsa-miR-147 or negative control miRNA was delivered via lipid-based transfection into A549, H1299, H522, H838, Calu-3, HCC827, HCC2935, H520, H596, H1650, H460, A549-luc, H460-luc, HCC827-luc, H1650-luc, H441-luc cells and via electroporation into H226 cells. Lipid-based reverse transfection was carried out in triplicates according to a published protocol and the following parameters: 5000-12000 cells per 96 well, 0.1-0.2 μl lipofectamine-2000 (Invitrogen, Carlsbad, Calif.) in 20 μl OptiMEM (Invitrogen), […] final concentration of miRNA in 100 μl (Ovcharenko et al., 2005). Electroporation of H226 cells was carried out using the BioRad GenePulserXcell™ instrument with the following settings: 5×10^6 cells with 5 μg miRNA in 200 μl OptiMEM, square wave pulse at 250 V for 5 ms. […]
(§2) The inventors determined sensitivity and specificity of hsa-miR-147 by administering hsa-miR-147 or negative control miRNA at increasing concentrations, ranging from 0 pM to 3 nM. Delivery of miRNA and cellular proliferation of A549 and H1299 cells was assessed as described above. […]

H1299 cells = test: Alamar Blue proliferation assay, H1299
From the text: as §1, §2

H522 cells = test: Alamar Blue proliferation assay, H522
From the text: as §1, with “ms. Electroporated H226 cells were seeded at 7000 cells per 96-well in a total volume of 100 μl. All cells except for Calu-3 cells were harvested 72 hours post transfection or electroporation for assessment of cellular proliferation. Calu-3 cells were harvested 10 days post transfection.” for “ms.”

H838 cells = test: Alamar Blue proliferation assay, H838
From the text: as §1, with “ms. Electroporated H226 cells were seeded at 7000 cells per 96-well in a total volume of 100 μl. All cells except for Calu-3 cells were harvested 72 hours post transfection or electroporation for assessment of cellular proliferation. Calu-3 cells were harvested 10 days post transfection.” for “ms.”

Calu-3 cells = test: Alamar Blue proliferation assay, Calu-3
From the text: as §1, with “ms. Electroporated H226 cells were seeded at 7000 cells per 96-well in a total volume of 100 μl. All cells except for Calu-3 cells were harvested 72 hours post transfection or electroporation for assessment of cellular proliferation. Calu-3 cells were harvested 10 days post transfection.” for “ms.”

HCC827 cells = test: Alamar Blue proliferation assay, HCC827
From the text: as §1, with “ms. Electroporated H226 cells were seeded at 7000 cells per 96-well in a total volume of 100 μl. All cells except for Calu-3 cells were harvested 72 hours post transfection or electroporation for assessment of cellular proliferation. Calu-3 cells were harvested 10 days post transfection.” for “ms.”

H226 cells = test: Alamar Blue proliferation assay, H226 (electroporation)
From the text: as §1, with “ms. Electroporated H226 cells were seeded at 7000 cells per 96-well in a total volume of 100 μl. All cells except for Calu-3 cells were harvested 72 hours post transfection or electroporation for assessment of cellular proliferation. Calu-3 cells were harvested 10 days post transfection.” for “ms.”

H460-luc cells = test: Alamar Blue proliferation assay, H460-luc
From the text: as §1, with “ms. Electroporated H226 cells were seeded at 7000 cells per 96-well in a total volume of 100 μl. All cells except for Calu-3 cells were harvested 72 hours post transfection or electroporation for assessment of cellular proliferation. Calu-3 cells were harvested 10 days post transfection.” for “ms.”

[1] = etoposide 10 μM, normalized to negative control miRNA (100%)
[2] = etoposide 50 μM, normalized to negative control miRNA (100%)
[3] = 30 nM, normalized to negative control miRNA (100% proliferation)

Compound: COc1cc([C@@H]2c3cc4c(cc3[C@@H](O[C@@H]3O[C@@H]5CO[C@@H](C)O[C@H]5[C@H](O)[C@H]3O)[C@H]3COC(=O)[C@H]23)OCO4)cc(OC)c1O [Etoposide, etoposide]
- % proliferation (A549 cells; [1]): 49.13%
- % proliferation (A549 cells; [2]): 42.18%
- % proliferation (H1299 cells; [1]): 79.65%
- % proliferation (H1299 cells; [2]): 54.38%
- % proliferation (H522 cells; [1]): 82.13%
- % proliferation (H522 cells; [2]): 61.08%
- % proliferation (H838 cells; [1]): 89.71%
- % proliferation (H838 cells; [2]): 36.97%
- % proliferation (Calu-3 cells; [1]): 20.81%
- % proliferation (Calu-3 cells; [2]): 13.53%
- % proliferation (HCC827 cells; [1]): 98.95%
- % proliferation (HCC827 cells; [2]): 82.53%
- % proliferation (H226 cells; [1]): 28.17%
- % proliferation (H226 cells; [2]): 9.33%
- % proliferation (H460-luc cells; [1]): 15.04%
- % proliferation (H460-luc cells; [2]): 2.34%

Compound: hsa-miR-147: Synthetic pre-miR-147 (Ambion AM17100; Dharmacon in vivo); mature sequence GUGUGUGGAAAUGCUUCUGC, MIMAT0000251, SEQ ID NO:114 (synthetic pre-miR (Ambion/Dharmacon), chemistry not given here; listed as Homo sapiens)
- % proliferation (A549 cells; [3]): 67.78%
- % proliferation (H1299 cells; [3]): 78.22%
- % proliferation (H522 cells; [3]): 89.21%
- % proliferation (H838 cells; [3]): 71.44%
- % proliferation (Calu-3 cells; [3]): 37.62%
- % proliferation (HCC827 cells; [3]): 76.18%
- % proliferation (H226 cells; [3]): 72.82%
- % proliferation (H460-luc cells; [3]): 39.54%
